Data published in ChEMBL document CHEMBL1152485, “Comparative chemometric modeling of cytochrome 3A4 inhibitory activity of structurally diverse compounds using stepwise MLR, FA-MLR, PLS, GFA, G/PLS and ANN techniques” (Eur J Med Chem, 2009).

These compounds were tested against Cytochrome P450 3A4 (Homo sapiens, UniProt P08684).
Chain of Cytochrome P450 3A4 (P08684 whole entry): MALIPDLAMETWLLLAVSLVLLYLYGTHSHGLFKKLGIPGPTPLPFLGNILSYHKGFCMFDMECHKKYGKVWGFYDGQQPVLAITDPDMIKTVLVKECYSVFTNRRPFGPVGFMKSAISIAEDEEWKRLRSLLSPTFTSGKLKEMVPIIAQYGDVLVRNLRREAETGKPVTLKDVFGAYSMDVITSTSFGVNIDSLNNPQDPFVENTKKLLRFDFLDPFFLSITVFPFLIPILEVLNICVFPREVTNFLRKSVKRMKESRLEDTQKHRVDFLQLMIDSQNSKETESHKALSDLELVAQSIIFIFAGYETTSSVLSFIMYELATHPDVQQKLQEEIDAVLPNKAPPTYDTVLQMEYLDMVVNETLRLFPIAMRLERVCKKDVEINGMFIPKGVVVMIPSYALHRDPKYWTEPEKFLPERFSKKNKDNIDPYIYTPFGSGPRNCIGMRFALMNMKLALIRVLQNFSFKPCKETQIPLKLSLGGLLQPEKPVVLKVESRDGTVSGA

Point of comparison: CC(C)(C)C(=O)C(Oc1ccc(Cl)cc1)n1cncn1 (stereo not drawn) [TRIADIMEFON], IC50 9.29 µM. Against it:
- CC(C)(C(=O)c1cccnc1)c1cccnc1 [METYRAPONE] — 1.9-fold lower, 4.93 µM
- CCCC1COC(Cn2cncn2)(c2ccc(Cl)cc2Cl)O1 (stereo not drawn) [PROPICONAZOLE] — 8.9-fold lower, 1.04 µM
